{"source": "paper PMC7180638", "about": "“Synthesis of Pyrrolidine Monocyclic Analogues of Pochonicine and Its Stereoisomers: Pursuit of Simplified Structures and Potent β-N-Acetylhexosaminidase Inhibition” (Molecules, 2020)", "origin": "cited, not measured here", "key": {"[1]": {"target": "β-N-Acetylhexosaminidase (Bovine liver)", "settings": "ref [2]; cited from earlier work"}, "[2]": {"target": "β-N-Acetylhexosaminidase (HL60)", "settings": "ref [2]; cited from earlier work"}, "[3]": {"target": "β-N-Acetylhexosaminidase (Jack bean)", "settings": "ref [2]; cited from earlier work"}, "[4]": {"target": "β-N-Acetylgalactosaminidase (HL60)", "settings": "ref [2]; cited from earlier work"}, "[5]": {"target": "T1, α-N-Acetylgalactosaminidase (Chicken liver) (Gallus gallus, UniProt Q90744)", "T1 construct": "purchased Sigma-Aldrich Chemical Co; host or cells: chicken liver", "T1 sequence (Q90744 1-405)": "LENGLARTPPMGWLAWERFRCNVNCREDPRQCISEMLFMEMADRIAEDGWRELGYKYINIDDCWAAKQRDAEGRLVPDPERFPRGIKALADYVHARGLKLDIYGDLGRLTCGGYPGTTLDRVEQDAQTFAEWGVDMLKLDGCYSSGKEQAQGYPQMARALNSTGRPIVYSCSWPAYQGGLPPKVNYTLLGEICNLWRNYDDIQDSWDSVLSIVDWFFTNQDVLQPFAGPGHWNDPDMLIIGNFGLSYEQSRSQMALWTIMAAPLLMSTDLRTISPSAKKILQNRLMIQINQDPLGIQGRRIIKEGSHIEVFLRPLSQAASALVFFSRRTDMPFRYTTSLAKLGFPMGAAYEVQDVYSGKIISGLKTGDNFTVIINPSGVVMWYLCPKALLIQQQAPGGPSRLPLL", "settings": "ref [2], cited from earlier work"}, "[6]": {"target": "β-N Acetylhexosaminidase (A. oryzae)", "settings": "ref [2]; cited from earlier work"}, "[7]": {"target": "β-N Acetylhexosaminidase (Human placenta)", "settings": "ref [2]; cited from earlier work"}}, "note": "Like-named read-outs stand apart in the source and are kept apart here."}
{"smiles": "CC(=O)NC[C@H]1[C@H](O)[C@H](O)[C@@H]2[C@H](O)C[C@@H](CO)N21", "note": "[Pochonicine (1), pochonicine]", "values": [{"measurement": "IC50", "setting": "[1]", "result": 21, "unit": "nM"}, {"measurement": "IC50", "setting": "[2]", "result": 18, "unit": "nM"}, {"measurement": "IC50", "setting": "[3]", "result": 1.6, "unit": "nM"}, {"measurement": "IC50", "setting": "[4]", "result": 49, "unit": "nM"}, {"measurement": "Inhibition % at 1000 μM", "setting": "[5]; 1000 μM", "result": 9.0, "unit": "%"}, {"measurement": "IC50", "setting": "[5]; listed as pochonicine (1)", "result": "did not exhibit any inhibition"}, {"measurement": "IC50", "setting": "[5]", "result": "NI (No Inhibition (less than 50% at 1000 μM))"}, {"measurement": "IC50", "setting": "[6]", "result": 330, "unit": "nM"}, {"measurement": "IC50", "setting": "[7]", "result": 12, "unit": "nM"}]}
